Legend:
[1] = system: mitochondria and/or endoplasmic reticulum; assay: partitioning of the dye into subcellular organelles; type: cell-based
Text: (§1) More generally, IR-786 may be used for non-radioactive imaging of areas of ischemia in the living heart, or other visualization of the viability of other tissues.

blood flow in the heart = assay: imaging of blood flow in the heart of a living laboratory rat after a thoracotomy; type: in vivo
Text: as §1

[2] = in vivo early half-life of the dye; details: small molecule form
Text: This permits multiple injections during a single procedure.

[3] = solubility of the dye in blood

in vivo early half-life [2] | solubility in blood [3] | SMILES | partitioning into mitochondria and/or endoplasmic reticulum [1] | imaging of blood flow in the heart (blood flow in the heart)
– | – | CN1C(=CC=C2CCCC(C=CC3=[N+](C)c4ccccc4C3(C)C)=C2Cl)C(C)(C)c2ccccc21.[O-][Cl+3]([O-])([O-])[O-] [IR-786] | partitions efficiently into mitochondria and/or endoplasmic reticulum in a concentration-dependent manner | successfully applied
shorter half-life | somewhat less soluble in blood | CC1(C)C(/C=C/C=C/C=C/C=C2\N(CCCCS(=O)(=O)O)c3ccc4ccccc4c3C2(C)C)=[N+](CCCCS(=O)(=O)[O-])c2ccc3ccccc3c21 [Indocyanine green, indocyanine green] | – | –
